From the supplement of paper PMC11061612

What was measured:
EW-3 (Ewing's Sarcoma) [1] = experiment: Bliss excess, mean over the matrix (fraction); higher = more synergy
Method in brief: (§1)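 Cell lines grown in DMEM/F12 or RPMI with 10% FBS were plated in 1536-well plates and held 24 hours at 37°C, 5% CO2 before 72 hours of exposure to two-drug dose matrices, with DMSO typically at 0.2%. CellTiter-Glo 2.0 luminescence gave viability, which was converted to inhibition. Vehicle wells were set to 0 and blank wells to 1. Combination Emax is the second-highest inhibition in the matrix, and Bliss excess is the observed combination effect minus the expected EA + EB − EA·EB, where EA and EB are the single-agent effects.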

GI-1 (Glioblastoma) [2] = experiment: as above
Method in brief: as §1

[3] = tested on: H-EMC-SS (Chondrosarcoma); experiment: as above
Method in brief: as §1

[4] = tested on: HSC-2 (Oral Cavity Carcinoma); experiment: as above
Method in brief: as §1

[5] = tested on: JHH-7 (Hepatocellular Carcinoma); experiment: as above
Method in brief: as §1

[6] = tested on: KINGS-1 (Low Grade Glioma); experiment: as above
Method in brief: as §1

[7] = tested on: LC4-1 (B-Lymphoblastic Leukemia); experiment: as above
Method in brief: as §1

NB7 (Neuroblastoma) [8] = experiment: as above
Method in brief: as §1

[9] = tested on: NCI-N87 (Gastric Carcinoma); experiment: as above
Method in brief: as §1

[10] = tested on: OCUB-M (Breast Carcinoma); experiment: as above
Method in brief: as §1

[11] = tested on: OCUM-1 (Gastric Carcinoma); experiment: as above
Method in brief: as §1

[12] = tested on: SCC-9 (Oral Cavity Carcinoma); experiment: as above
Method in brief: as §1

[13] = tested on: SNU-C1 (Colorectal Carcinoma); experiment: as above
Method in brief: as §1

[14] = tested on: TGBC11TKB (Gastric Carcinoma); experiment: as above
Method in brief: as §1

[15] = tested on: VMRC-LCD (Lung Adenocarcinoma); experiment: as above
Method in brief: as §1

EW-3 (Ewing's Sarcoma) [16] = experiment: combination Emax (second highest fraction inhibited in the dose matrix, 72 h); higher = more inhibition; extreme values may be limits of the assay
Method in brief: as §1

GI-1 (Glioblastoma) [17] = experiment: as above
Method in brief: as §1

[18] = tested on: H-EMC-SS (Chondrosarcoma); experiment: as above
Method in brief: as §1

[19] = tested on: HSC-2 (Oral Cavity Carcinoma); experiment: as above
Method in brief: as §1

[20] = tested on: JHH-7 (Hepatocellular Carcinoma); experiment: as above
Method in brief: as §1

[21] = tested on: KINGS-1 (Low Grade Glioma); experiment: as above
Method in brief: as §1

[22] = tested on: LC4-1 (B-Lymphoblastic Leukemia); experiment: as above
Method in brief: as §1

NB7 (Neuroblastoma) [23] = experiment: as above
Method in brief: as §1

[24] = tested on: NCI-N87 (Gastric Carcinoma); experiment: as above
Method in brief: as §1

[25] = tested on: OCUB-M (Breast Carcinoma); experiment: as above
Method in brief: as §1

[26] = tested on: OCUM-1 (Gastric Carcinoma); experiment: as above
Method in brief: as §1

[27] = tested on: SCC-9 (Oral Cavity Carcinoma); experiment: as above
Method in brief: as §1

[28] = tested on: SNU-C1 (Colorectal Carcinoma); experiment: as above
Method in brief: as §1

[29] = tested on: TGBC11TKB (Gastric Carcinoma); experiment: as above
Method in brief: as §1

[30] = tested on: VMRC-LCD (Lung Adenocarcinoma); experiment: as above
Method in brief: as §1
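Throughout, for Bliss excess, mean over the matrix: after 72 h of two-drug dosing.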

| SMILES | Bliss excess (EW-3 (Ewing's Sarcoma) [1]) | Bliss excess (GI-1 (Glioblastoma) [2]) | Bliss excess [3] | Bliss excess [4] | Bliss excess [5] | Bliss excess [6] | Bliss excess [7] | Bliss excess (NB7 (Neuroblastoma) [8]) | Bliss excess [9] | Bliss excess [10] | Bliss excess [11] | Bliss excess [12] | Bliss excess [13] | Bliss excess [14] | Bliss excess [15] | combination Emax (EW-3 (Ewing's Sarcoma) [16]) | combination Emax (GI-1 (Glioblastoma) [17]) | combination Emax [18] | combination Emax [19] | combination Emax [20] | combination Emax [21] | combination Emax [22] | combination Emax (NB7 (Neuroblastoma) [23]) | combination Emax [24] | combination Emax [25] | combination Emax [26] | combination Emax [27] | combination Emax [28] | combination Emax [29] | combination Emax [30] |
| --- | --- | --- | --- | --- | --- | --- | --- | --- | --- | --- | --- | --- | --- | --- | --- | --- | --- | --- | --- | --- | --- | --- | --- | --- | --- | --- | --- | --- | --- | --- |
| CC1(C)CCC(CN2CCN(c3ccc(C(=O)NS(=O)(=O)c4ccc(NCC5CCOCC5)c([N+](=O)[O-])c4)c(Oc4cnc5[nH]ccc5c4)c3)CC2)=C(c2ccc(Cl)cc2)C1 [Venetoclax] + CS(=O)(=O)CCNCc1ccc(-c2ccc3ncnc(Nc4ccc(OCc5cccc(F)c5)c(Cl)c4)c3c2)o1 [Lapatinib] (first compound max 1 µM, 7x7, partner max 10 µM) | 0.0862 | 0.0283 | -0.0278 | -0.0145 | -0.0408 | -0.0466 | 0.0233 | -0.0348 | -0.0029 | -0.0181 | -0.0196 | -0.036 | -0.0495 | 0.0197 | -0.0139 | 0.55 | 0.284 | 0.188 | 0.8 | 0.335 | 0.208 | 1 | 0.117 | 0.931 | 0.518 | 0.178 | 0.955 | 0.0031 | 0.325 | 0.256 |
| N#Cc1cnc(Nc2cc(NC[C@H]3CNCCO3)c(C(F)(F)F)cn2)cn1 [SRA737] + O=c1[nH]cc(F)c(=O)[nH]1 [5-Fluorouracil] (first compound max 10 µM, 7x7, partner max 20 µM) | -0.0165 | -0.0397 | -0.0371 | -0.0197 |  | -0.029 | -0.0214 | -0.0058 | 0.0586 | 0.0349 | -0.0345 | 0.053 | 0.0964 | 0.0518 | -0.0371 | 0.663 | 0.683 | 0.198 | 0.382 | 0.392 | 0.122 | 0.847 | 0.431 | 0.628 | 0.302 | 0.416 | 0.319 | 0.803 | 0.869 | 0.668 |
| CS(=O)(=O)CCNCc1ccc(-c2ccc3ncnc(Nc4ccc(OCc5cccc(F)c5)c(Cl)c4)c3c2)o1 [Lapatinib] + Cn1cnc2c(F)c(Nc3ccc(Br)cc3Cl)c(C(=O)NOCCO)cc21 [Selumetinib] (first compound max 10 µM, 7x7, partner max 10 µM) | -0.0017 | 0.0054 | -0.0086 | -0.0044 | -0.0408 | -0.0191 | 0.0675 | -0.0408 | 0.0451 | -0.0507 | -0.0148 | 0.0063 | -0.0196 | 0.106 | -0.0369 | 0.405 | 0.368 | 0.317 | 0.782 | 0.344 | 0.337 | 0.954 | 0.119 | 0.991 | 0.551 | 0.95 | 0.988 | 0.785 | 0.527 | 0.207 |
| Cc1c2c(nn1C)CSCc1cc(n(C)n1)CSc1cc(c3ccccc3c1)OCCCc1c(C(=O)O)n(C)c3c-2c(Cl)ccc13 [AZD5991] + Nc1ccn([C@@H]2O[C@H](CO)[C@@H](O)C2(F)F)c(=O)n1 [Gemcitabine] (first compound max 1 µM, 7x7, partner max 0.3 µM) | 0.0096 | -0.0002 | -0.005 | 0.0273 | -0.0114 | -0.0719 | 0.0158 | 0.0093 | -0.0095 | 0.0283 | -0.0565 | -0.0216 | 0.0119 | -0.0006 | 0.0333 | 0.935 | 0.86 | 0.594 | 0.992 | 0.314 | 0.195 | 0.975 | 0.844 | 0.61 | 1 | 0.656 | 0.237 | 0.449 | 0.929 | 0.539 |
